From patent US20240247301A1, “DIAGNOSTIC ASSAY FOR CLASSIC INBORN GALACTOSEMIA” (Ohio State Innovation Foundation, priority 2022, published 2024)
Values joined by “and” are separate entries in the source; they are usually repeats but may differ in a detail not shown here. Identical values can stand only once. Like-named read-outs stand apart in the source and are kept apart here.

Assays:
[1] = target: T1, Duarte GalT (galactose-1-phosphate uridylyltransferase, Duarte variant) (Homo sapiens, UniProt P07902, N314D); assay: Duarte GalT-YidA coupled assay (SUMO tag removed from YidA); type: biochemical
T1 construct: coupled to YidA or PGM-G6PDH (helper enzymes)
T1 sequence (P07902 whole entry N314D): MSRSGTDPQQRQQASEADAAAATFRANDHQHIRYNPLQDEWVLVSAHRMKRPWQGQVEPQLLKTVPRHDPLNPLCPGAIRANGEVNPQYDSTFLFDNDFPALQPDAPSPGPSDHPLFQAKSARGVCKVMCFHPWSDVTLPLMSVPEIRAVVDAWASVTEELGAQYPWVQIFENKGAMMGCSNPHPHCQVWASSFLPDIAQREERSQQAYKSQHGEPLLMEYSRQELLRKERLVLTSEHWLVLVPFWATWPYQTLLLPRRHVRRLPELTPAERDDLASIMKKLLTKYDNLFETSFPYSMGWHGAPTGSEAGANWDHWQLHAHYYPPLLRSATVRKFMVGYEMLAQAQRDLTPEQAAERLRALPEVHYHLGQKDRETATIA
Procedure: Next, it was sought to obtain recombinant GalT for proof-of-concept assays. The ready availability of the Duarte GalT clone from Addgene (GALTA-c001) led to use of this enzyme in the current studies.
(§1) Transformation and overexpression of GalT were performed as described elsewhere (Lai et al. 2021). For purification, a single bacterial colony expressing GalT was used to inoculate 2.5 mL of Dynamite growth medium (Taylor et al. 2017) supplemented with […] kanamycin and grown overnight at 37° ° C. with shaking. This saturated overnight culture was used to seed 250 mL of fresh dynamite medium containing the antibiotic. […]
(§2) Recombinant GalT was purified using the same protocol as that described above for YidA. The concentration of the His6-tagged GalT was determined using a molar extinction coefficient (85,620 M^−1 cm^−1) at 280 nm, and the final preparation was stored at −80° C. in small aliquots, which were subsequently thawed immediately before use in biochemical assays.
These 2-μL aliquots were added to a 384-well plate which were pre-dispensed to test wells 18 μL of water and 5 μL of malachite green reagent. […] To determine the Km and kcat values, the initial velocity calculated at each substrate concentration was subject to the Michaelis-Menten curve-fitting option in Kaleidagraph (Synergy Software).

[2] = target: T1, Duarte GalT (galactose-1-phosphate uridylyltransferase, Duarte variant); assay: Duarte GalT-PGM-G6PDH coupled assay (traditional); type: biochemical
Procedure: It was sought to compare the Duarte GalT activity determined using the YidA assay versus the existing method. To this end, measurements were conducted using the traditional PGM-G6PDH coupled assay (McCorvie et al. 2013). By titrating the coupled enzymes, the threshold that permits the most sensitive detection was first determined.
as §1, §2
An NADH standard curve (data not shown) was generated using relative fluorescence units (RFUs) versus different concentrations of NADH and used as a reference for calculating the NADH produced from the Duarte GalT-PGM-G6PDH coupled assay. […]

[3] = system: wild-type GalT (galactose-1-phosphate uridylyltransferase); conditions: cited from earlier work; for Km: read-out: Km (for Gal-1-P)
[4] = target: Salmonella typhimurium YidA, recombinant wild type, SEQ ID NO: 1 (Salmonella enterica, UniProt Q8ZKY8); assay: YidA phosphatase activity (malachite green), dephosphorylation of Glc-1-P; type: biochemical
Chain of Salmonella typhimurium YidA, recombinant wild type, SEQ ID NO: 1 (Q8ZKY8 entry or part of it): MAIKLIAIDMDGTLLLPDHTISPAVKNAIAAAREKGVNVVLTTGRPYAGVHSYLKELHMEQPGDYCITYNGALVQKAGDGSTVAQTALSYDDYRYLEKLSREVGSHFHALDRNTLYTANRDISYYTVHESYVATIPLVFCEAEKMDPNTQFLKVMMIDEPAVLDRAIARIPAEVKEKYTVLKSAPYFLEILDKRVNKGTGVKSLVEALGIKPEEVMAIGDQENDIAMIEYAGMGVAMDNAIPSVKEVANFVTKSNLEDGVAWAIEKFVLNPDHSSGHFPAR
From the text: The sugar phosphate phosphatase produced from an engineered cell can be identical to a naturally occurring one, such as YidA or YihX, but placed within a cell in which it is not naturally produced. Examples of this approach are given throughout. The sequence for YidA from Salmonella typhimurium can be found, for example, in NC_492731.1. This sequence corresponds to SEQ ID NO: 1. The gene ID is 1255358. The sequence for YihX from Salmonella typhimurium can be found, for example, in NC_462906.1. This corresponds to SEQ ID NO: 2. The gene ID is 1255552. In one example, genes encoding these proteins can be placed within a cell in which it is not naturally occurring.
Nearly homogeneous recombinant Salmonella YidA by overexpressing it in E. coli SixPack cells were obtained (Lipinszki et al. 2018) (FIG. 3A). N-terminal fusions with a small ubiquitin-like modifier (SUMO) domain were engineered to enhance solubility (Marblestone et al. 2006) and a His6 tag to facilitate affinity purification (FIG. 3A). […] Since YidA is a Mg^2+-dependent phosphatase, its activity with Glc-1-P in the presence of 0-5 mM MgCl2 was first tested and determined that 3 mM MgCl2 was optimal (FIG. 5). […]

E. coli YidA = conditions: Kuznetsova et al. 2006; cited from earlier work
[5] = target: Salmonella typhimurium YihX, recombinant wild type, SEQ ID NO: 2 (Salmonella enterica, UniProt Q7CPC8); assay: Kinetic studies of YihX with Glc 1-P and Gal 1-P; type: biochemical; conditions: YihX refolded after denaturing purification
Chain of Salmonella typhimurium YihX, recombinant wild type, SEQ ID NO: 2 (Q7CPC8 entry or part of it): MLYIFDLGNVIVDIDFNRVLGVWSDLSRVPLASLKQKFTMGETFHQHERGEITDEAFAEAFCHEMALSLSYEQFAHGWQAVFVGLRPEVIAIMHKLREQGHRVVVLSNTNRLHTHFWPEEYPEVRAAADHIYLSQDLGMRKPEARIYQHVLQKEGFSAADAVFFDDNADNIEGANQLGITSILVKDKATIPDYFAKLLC
From the text: Salmonella YihX was purified after overexpression in E. coli BL21 (DE3) pLysS cells. His6-YihX was purified under denaturing conditions using immobilized metal-affinity chromatography. Following purification, YihX was refolded by stepdown dialysis to remove the denaturant.

[6] = mean ± SD of three independent trials
[7] = McCorvie et al., 2013 (text: 2014)

Compound	kcat [1, 6]	kcat ([1]; single trials, ± curve-fit error, pH 8.0, 37° C., 1 mM UDP-glucose)	kcat [2, 6] [s⁻¹]	kcat ([2]; single trials, ± curve-fit error, pH 8, 37° C., 0.8 mM UDP-glucose)	kcat ([3]; Crews et al., 2000)	kcat [3, 7] [min⁻¹]	kcat ([3]; Tang et al., 2012, table value calculated from reported Vmax with 44 kDa)	Km ([3]; Crews et al., 2000) [µM]	Km [3, 7] [µM]	Km ([3]; Tang et al., 2012) [µM]	kcat ([4]; mean ± SE of two independent trials) [s⁻¹]	kcat ([4]; single trials, ± curve-fit error, pH 8, 37° C., 3 mM MgCl2)	Km (E. coli YidA) [µM]	kcat (E. coli YidA) [s⁻¹]	specificity for Glc 1-P over Gal 1-P [5] [fold]
O=P(O)(O)O[C@H]1O[C@H](CO)[C@H](O)[C@H](O)[C@H]1O [Gal-1-P, galactose-1-phosphate]	14.2 ± 1.33 s⁻¹ and 14.1 ± 0.75 s⁻¹	14.2 ± 1.33 s⁻¹ and 13.3 ± 1.05 s⁻¹ and 14.7 ± 1.17 s⁻¹	4.32 ± 0.12	4.45 ± 0.2 s⁻¹ and 4.3 ± 0.067 s⁻¹ and 4.22 ± 0.2 s⁻¹	5,880 min^−1	816	2,400 min^−1 and 2,122* min^−1	400	290	1250					
O=P(O)(O)O[C@H]1O[C@H](CO)[C@@H](O)[C@H](O)[C@H]1O [Glc-1-P, α-D-glucose-1-phosphate]											14.2 ± 0.35	13.9 ± 1.07 s⁻¹ and 14.6 ± 1.05 s⁻¹	210	20	36
